Results reported in patent publication US9428514B2, “Bromodomain inhibitors” (AbbVie Inc., priority 2013, dated 2016).

Test system: breast cancer cell line MX-1
Assay: MX-1 cell line proliferation assay (3-day, Cell Titer Glo)
Type: cell-based
Settings: Homo sapiens, MX1, MX-1 cells, 72 hours, read-out: Cellular proliferation: EC50
Description: The impact of compounds of the Examples on cancer cell proliferation was determined using the breast cancer cell line MX-1 (ATCC) in a 3-day proliferation assay. MX-1 cells were maintained in RPMI supplemented with 10% FBS at 37° C. and an atmosphere of 5% CO2. For compound testing, MX-1 cells were plated in 96-well black bottom plates at a density of 5000 cells/well in 90 μL of culture media and incubated at 37° overnight to allow cell adhesion and spreading. Compound dilution series were prepared in DMSO via a 3-fold serial dilution from 3 mM to […]. The DMSO dilution series were then diluted 1:100 in phosphate buffered saline, and 10 μL of the resulted solution were added to the appropriate wells of the MX-1 cell plate. The final compound concentrations in the wells were 3, 1, 0.3, 0.1, 0.03, 0.01, 0.003, 0.001, 0.0003, 0.0001, and 0.00003 μM.
Luminescence readings from the Cell Titer Glo assay were normalized to the DMSO treated cells and analyzed using the GraphPad Prism software with sigmoidal curve fitting to obtain EC50s. The minimum significant ratio (MSR) was determined to evaluate assay reproducibility (Eastwood et al., (2006) J Biomol Screen, 11: 253-261). The overall MSR was determined to be 2.1 and a moving MSR (last six run MSR overtime) has been <2. The EC50 values are reported in Table 1 for the indicated compounds.

Structure (SMILES) | EC50 [nM]
CCOc1cc(=O)n(C)cc1-c1cc(NC(=O)Cc2cc(F)ccc2Cl)ccc1Oc1ccc(F)cc1F [Example 1, 2-(2-chloro-5-fluorophenyl)-N-[4-(2,4-difluorophenoxy)-3-(4-ethoxy-1-methyl-6-oxo-1,6-dihydropyridin-3-yl)phenyl]acetamide] | 114
CCOc1cc(=O)n(C)cc1-c1cc(NC(=O)Cc2ccc3c(c2)CCCO3)ccc1Oc1ccc(F)cc1F [Example 2, N-[4-(2,4-difluorophenoxy)-3-(4-ethoxy-1-methyl-6-oxo-1,6-dihydropyridin-3-yl)phenyl]-2-(3,4-dihydro-2H-chromen-6-yl)acetamide] | 279
CCOc1cc(=O)n(C)cc1-c1cc(NC(=O)Cc2ccc(Cl)cc2F)ccc1Oc1ccc(F)cc1F [Example 3, 2-(4-chloro-2-fluorophenyl)-N-[4-(2,4-difluorophenoxy)-3-(4-ethoxy-1-methyl-6-oxo-1,6-dihydropyridin-3-yl)phenyl]acetamide] | 433
CCOc1cc(=O)n(C)cc1-c1cc(NC(=O)Cc2cnn(C)c2)ccc1Oc1ccc(F)cc1F [Example 4, N-[4-(2,4-difluorophenoxy)-3-(4-ethoxy-1-methyl-6-oxo-1,6-dihydropyridin-3-yl)phenyl]-2-(1-methyl-1H-pyrazol-4-yl)acetamide] | 425
CCOc1cc(=O)n(C)cc1-c1cc(NC(=O)Cc2ccc(C)nc2)ccc1Oc1ccc(F)cc1F [Example 5, N-[4-(2,4-difluorophenoxy)-3-(4-ethoxy-1-methyl-6-oxo-1,6-dihydropyridin-3-yl)phenyl]-2-(6-methylpyridin-3-yl)acetamide] | 681
CCOc1cc(=O)n(C)cc1-c1cc(NC(=O)Cc2cc(C)n(C)n2)ccc1Oc1ccc(F)cc1F [Example 6, N-[4-(2,4-difluorophenoxy)-3-(4-ethoxy-1-methyl-6-oxo-1,6-dihydropyridin-3-yl)phenyl]-2-(1,5-dimethyl-1H-pyrazol-3-yl)acetamide] | 356
CCOc1cc(=O)n(C)cc1-c1cc(NC(=O)Cc2cnc(C)s2)ccc1Oc1ccc(F)cc1F [Example 7, N-[4-(2,4-difluorophenoxy)-3-(4-ethoxy-1-methyl-6-oxo-1,6-dihydropyridin-3-yl)phenyl]-2-(2-methyl-1,3-thiazol-5-yl)acetamide] | 187
CCOc1cc(=O)n(C)cc1-c1cc(NC(=O)Cn2ccc(-c3ccccc3F)n2)ccc1Oc1ccc(F)cc1F [Example 8, N-[4-(2,4-difluorophenoxy)-3-(4-ethoxy-1-methyl-6-oxo-1,6-dihydropyridin-3-yl)phenyl]-2-[3-(2-fluorophenyl)-1H-pyrazol-1-yl]acetamide] | > 3000
CCOc1cc(=O)n(C)cc1-c1cc(NCCCn2cccn2)ccc1Oc1ccc(F)cc1F [Example 9, 5-[2-(2,4-difluorophenoxy)-5-{[3-(1H-pyrazol-1-yl)propyl]amino}phenyl]-4-ethoxy-1-methylpyridin-2(1H)-one] | 746
CCOc1cc(=O)n(C)cc1-c1cc(NCc2cn3c(n2)CCC3)ccc1Oc1ccc(F)cc1F [Example 10, 5-{2-(2,4-difluorophenoxy)-5-[(6,7-dihydro-5H-pyrrolo[1,2-a]imidazol-2-ylmethyl)amino]phenyl}-4-ethoxy-1-methylpyridin-2(1H)-one] | 1890
CCOc1cc(=O)n(C)cc1-c1cc(NCc2cccc(C)n2)ccc1Oc1ccc(F)cc1F [Example 11, 5-[2-(2,4-difluorophenoxy)-5-{[(6-methylpyridin-2-yl)methyl]amino}phenyl]-4-ethoxy-1-methylpyridin-2(1H)-one] | 884
CCOc1cc(=O)n(C)cc1-c1cc(NCc2ncccc2C)ccc1Oc1ccc(F)cc1F [Example 12, 5-[2-(2,4-difluorophenoxy)-5-{[(3-methylpyridin-2-yl)methyl]amino}phenyl]-4-ethoxy-1-methylpyridin-2(1H)-one] | 1020
CCOc1cc(=O)n(C)cc1-c1cc(NCc2ccnn2C)ccc1Oc1ccc(F)cc1F [Example 13, 5-[2-(2,4-difluorophenoxy)-5-{[(1-methyl-1H-pyrazol-5-yl)methyl]amino}phenyl]-4-ethoxy-1-methylpyridin-2(1H)-one] | 1480
CCOc1cc(=O)n(C)cc1-c1cc(NCCCC(=O)OC)ccc1Oc1ccc(F)cc1F [Example 14, methyl 4-{[4-(2,4-difluorophenoxy)-3-(4-ethoxy-1-methyl-6-oxo-1,6-dihydropyridin-3-yl)phenyl]amino}butanoate] | 111
CCOc1cc(=O)n(C)cc1-c1cc(NC(=O)Nc2ccc(C)cc2C)ccc1Oc1ccc(F)cc1F [Example 16, 1-[4-(2,4-difluorophenoxy)-3-(4-ethoxy-1-methyl-6-oxo-1,6-dihydropyridin-3-yl)phenyl]-3-(2,4-dimethylphenyl)urea] | > 3000
CCOc1cc(=O)n(C)cc1-c1cc(NC(=O)Nc2cc(C)ccc2C)ccc1Oc1ccc(F)cc1F [Example 19, 1-[4-(2,4-difluorophenoxy)-3-(4-ethoxy-1-methyl-6-oxo-1,6-dihydropyridin-3-yl)phenyl]-3-(2,5-dimethylphenyl)urea] | 557
CCOc1cc(=O)n(C)cc1-c1cc(NCc2cnco2)ccc1Oc1ccc(F)cc1F [Example 23, 5-{2-(2,4-difluorophenoxy)-5-[(1,3-oxazol-5-ylmethyl)amino]phenyl}-4-ethoxy-1-methylpyridin-2(1H)-one] | > 3000
CCOc1cc(=O)n(C)cc1-c1cc(NCc2cncn2C)ccc1Oc1ccc(F)cc1F [Example 24, 5-[2-(2,4-difluorophenoxy)-5-{[(1-methyl-1H-imidazol-5-yl)methyl]amino}phenyl]-4-ethoxy-1-methylpyridin-2(1H)-one] | 832
CCOc1cc(=O)n(C)cc1-c1cc(NCc2ccn(CC)n2)ccc1Oc1ccc(F)cc1F [Example 25, 5-[2-(2,4-difluorophenoxy)-5-{[(1-ethyl-1H-pyrazol-3-yl)methyl]amino}phenyl]-4-ethoxy-1-methylpyridin-2(1H)-one] | 1540
CCOc1cc(=O)n(C)cc1-c1cc(NC(=O)CCS(=O)(=O)c2ccccc2)ccc1Oc1ccc(F)cc1F [Example 27, N-[4-(2,4-difluorophenoxy)-3-(4-ethoxy-1-methyl-6-oxo-1,6-dihydropyridin-3-yl)phenyl]-3-(phenylsulfonyl)propanamide] | 730
CCOc1cc(=O)n(C)cc1-c1cc(NC(=O)Cc2cccc(Oc3ccccc3)c2)ccc1Oc1ccc(F)cc1F [Example 28, N-[4-(2,4-difluorophenoxy)-3-(4-ethoxy-1-methyl-6-oxo-1,6-dihydropyridin-3-yl)phenyl]-2-(3-phenoxyphenyl)acetamide] | 605
CCOc1cc(=O)n(C)cc1-c1cc(NC(=O)Cc2ccc(S(C)(=O)=O)cc2)ccc1Oc1ccc(F)cc1F [Example 29, N-[4-(2,4-difluorophenoxy)-3-(4-ethoxy-1-methyl-6-oxo-1,6-dihydropyridin-3-yl)phenyl]-2-[4-(methylsulfonyl)phenyl]acetamide] | 433
CCOc1cc(=O)n(C)cc1-c1cc(NC(=O)CCOc2ccccc2)ccc1Oc1ccc(F)cc1F [Example 30, N-[4-(2,4-difluorophenoxy)-3-(4-ethoxy-1-methyl-6-oxo-1,6-dihydropyridin-3-yl)phenyl]-3-phenoxypropanamide] | > 3000
CCOc1cc(=O)n(C)cc1-c1cc(NC(=O)COc2ccc(C)cc2)ccc1Oc1ccc(F)cc1F [Example 33, N-[4-(2,4-difluorophenoxy)-3-(4-ethoxy-1-methyl-6-oxo-1,6-dihydropyridin-3-yl)phenyl]-2-(4-methylphenoxy)acetamide] | 464
CCOc1cc(=O)n(C)cc1-c1cc(NC(=O)COCc2ccccc2)ccc1Oc1ccc(F)cc1F [Example 35, 2-(benzyloxy)-N-[4-(2,4-difluorophenoxy)-3-(4-ethoxy-1-methyl-6-oxo-1,6-dihydropyridin-3-yl)phenyl]acetamide] | 375
CCOc1cc(=O)n(C)cc1-c1cc(NC(=O)Cc2noc3ccccc23)ccc1Oc1ccc(F)cc1F [Example 36, 2-(1,2-benzoxazol-3-yl)-N-[4-(2,4-difluorophenoxy)-3-(4-ethoxy-1-methyl-6-oxo-1,6-dihydropyridin-3-yl)phenyl]acetamide] | 476
CCOc1cc(=O)n(C)cc1-c1cc(NC(=O)Cc2ccc(Oc3ccccc3)cc2)ccc1Oc1ccc(F)cc1F [Example 37, N-[4-(2,4-difluorophenoxy)-3-(4-ethoxy-1-methyl-6-oxo-1,6-dihydropyridin-3-yl)phenyl]-2-(4-phenoxyphenyl)acetamide] | 1440
CCOc1cc(=O)n(C)cc1-c1cc(NC(=O)CCCc2ccccc2)ccc1Oc1ccc(F)cc1F [Example 38, N-[4-(2,4-difluorophenoxy)-3-(4-ethoxy-1-methyl-6-oxo-1,6-dihydropyridin-3-yl)phenyl]-4-phenylbutanamide] | 779
CCOc1cc(=O)n(C)cc1-c1cc(NC(=O)Cc2ccc3ccccc3c2)ccc1Oc1ccc(F)cc1F [Example 39, N-[4-(2,4-difluorophenoxy)-3-(4-ethoxy-1-methyl-6-oxo-1,6-dihydropyridin-3-yl)phenyl]-2-(naphthalen-2-yl)acetamide] | 595
CCOc1cc(=O)n(C)cc1-c1cc(NC(=O)CCc2ccccc2)ccc1Oc1ccc(F)cc1F [Example 41, N-[4-(2,4-difluorophenoxy)-3-(4-ethoxy-1-methyl-6-oxo-1,6-dihydropyridin-3-yl)phenyl]-3-phenylpropanamide] | 398
